The target in one assay is T1, Aβ fibrils (Homo sapiens, UniProt P05067).
T1 construct: the Aβ fibrils are grown from synthetic Aβ (1-42) peptides by incubating the peptides (74 μM) in ultrapure water
The settings on record: cited from earlier work; for Binding and coating of Aβ fibrils (inhibition of IgG-Aβ fibril interactions): ELISA with monoclonal anti-Aβ IgG clone 6E10, Inbar et al. Background: ELISA stands for enzyme-linked immunosorbent assay.

Assay [1] has as its target T2, Aβ peptide (1-42) ion channels (Homo sapiens, UniProt P05067).
T2 construct: purchased Innovagen, Lund, SE or Bachem Bioscience Inc., King of Prussia, Pa., USA
The assay can be described thus: Electrophysiological planar lipid bilayer assay for Aβ peptide ion channel activity (bilayer chambers, voltage clamp). To be noted: for Inhibition of Aβ pores / ion channel activity of Aβ: electrophysiological screening assay of FIGS. 3-5; for Inhibition of Aβ peptide ion channel formation (pore forming activity): 37 μM Aβ peptide, test compound in molar ratio 1:1, added at the same time as Aβ peptide, planar lipid bilayer; for Disruption of preformed Aβ ion channels: added after current activity was observed. Type of assay: biochemical. From the text: Ion channel measurements. Screening assays can be performed using single channel recordings in “voltage clamp mode” using Ag/AgCl electrodes (Warner Instruments) in each compartment of the bilayer chambers. Data acquisition and storage can be carried out using custom software in combination with either an EPC-7 patch clamp amplifier from List Medical Electronic (set at a gain of 10 mV pA-1 and a filter cutoff frequency of 3 kHz) or a Geneclamp 500 amplifier from Axon Instruments (with a CV-5B 100GU headstage, set at a gain of 100 mV pA-1 and filter cutoff frequency of 1 kHz). In some embodiments, patch clamp amplifiers, for example, the EPC-7 amplifier can be used for most folded bilayers and the Geneclamp 500 amplifier for most painted bilayers. The data acquisition boards for both amplifiers were set to a sampling frequency of 15 kHz. Current traces can be further filtered using a digital Gaussian low-pass filter with a cutoff frequency of 30 Hz. In some embodiments, the current traces used to generate data that can be recorded at applied potentials 50 mV and filtered at 10 Hz.
Analysis of the single channel current traces can be made by computing histograms of the currents from the original current-time traces with ClampFit 9.2 software from Axon Instruments. From these histograms, the main current values can be extracted by fitting a Gaussian function to the peaks in the histograms. Single channel conductances can refer to the main conductance state (i.e. to the dominant peaks in the current histograms).
The lipid mixture can be made from POPE:POPG (Avanti Polar Lipids) at 25 mg/ml (1:1) in Heptane. The pretreatment lipid solution can be POPE:POPG 20 mg/mL in Hexane. 2. The bilayer is formed in classic bilayer cups and chamber (Warner Instruments). This 2-part system consists of a black Delrin chamber and a cup of Delrin. Cups and chambers are designed such that addition of equal volumes to the cup and chamber (cis and trans sides) results in a balanced solution height, minimizing any pressure gradients across the bilayer membrane.
The bilayer was formed over a 250-μm hole in a partition separating two Delrin compartments, the so called “painting technique.” First, droplets of pretreated lipid solution were placed on both sides of the hole, using 100 μL-Hamilton syringe. Once the droplet of hexane evaporates, both chambers (cis and trans) were symmetrically filled with 900 μL of buffer solution, 100 mM KH2PO4/K2HPO4 pH 7.4, at room temperature.
When the bilayer set-up was already in place with Ag/AgCl electrodes in Faraday cage (a bilayer workstation which provides critical shielding of electromagnetic interference from outside sources and isolate vibration) the lipid solution (POPE:POPG in Heptane) can be painted directly over the hole by using a thin paintbrush. Blowing air underneath the hole using a Pasteur pipette to thin out the bilayer can be used until the appropriate capacitance (80-120 pF) is achieved. A voltage of ±100 mV was applied for at least 10 minutes to test stability of lipid bilayer.
Aβ(1-42) (commercially available from Innovagen, Lund, SE or Bachem Bioscience Inc., King of Prussia, Pa., USA) is initially dissolved in deionized water at 1 mg/ml (221.5 μM) and stored at −20° C. The stock solution can be aliquotted to sufficient amount for each time use (90 μL). After the stable bilayer is constituted, the Aβ(1-42) solution can be added to the trans side of the chamber to obtain a final concentration of 37 μM. The solution is mixed well in the chamber under stirring for 5 minutes.
Congo Red (Sigma) is dissolved in de-ionized (DI) water to achieve a concentration of 2.5 mg/ml (3.58 mM as a stock solution). (−)Nicotine hemisulfate (Sigma, St. Louis, Mo., USA) was diluted to 1.89 mM in DI water. Tannic acid (Riedel-de Haën, Seelze, Germany) is diluted to 20 mM in DI water.

“Also recorded” adds a separate entry of the source.

T2 sequence (P05067 672-713 limits assumed): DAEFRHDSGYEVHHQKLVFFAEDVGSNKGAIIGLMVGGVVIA
T1 sequence (P05067 672-713 limits assumed): as above

`O=S(=O)([O-])c1ccc(O)c2ccccc12.[Na+]` [1-naphthol-4-sulfonate]: the “Binding and coating of Aβ fibrils (inhibition of IgG-Aβ fibril interactions)” value at Aβ fibrils is “do not interact with Aβ fibrils”.

As to `Nc1c(/N=N/c2ccc(-c3ccc(/N=N/c4cc(S(=O)(=O)O)c5ccccc5c4N)cc3)cc2)cc(S(=O)(=O)O)c2ccccc12` [Congo Red], the “Binding to aggregated Aβ fibrils” value at Aβ fibrils is “bind strongly”. For the same molecule, the “Inhibition of Aβ pores / ion channel activity of Aβ” value in assay [1] is given as “inhibit Aβ pores”.

For `O=C(OC[C@H]1O[C@@H](OC(=O)c2cc(O)c(O)c(OC(=O)c3cc(O)c(O)c(O)c3)c2)[C@H](OC(=O)c2cc(O)c(O)c(OC(=O)c3cc(O)c(O)c(O)c3)c2)[C@@H](OC(=O)c2cc(O)c(O)c(OC(=O)c3cc(O)c(O)c(O)c3)c2)[C@@H]1OC(=O)c1cc(O)c(O)c(OC(=O)c2cc(O)c(O)c(O)c2)c1)c1cc(O)c(O)c(OC(=O)c2cc(O)c(O)c(O)c2)c1` [Tannic acid], the “Binding to aggregated Aβ fibrils” value at Aβ fibrils is “bind strongly”. In assay [1], the “Inhibition of Aβ peptide ion channel formation (pore forming activity)” value is recorded as “Inhibition of Aβ ion channel formation” and the “Inhibition of Aβ pores / ion channel activity of Aβ” value is “inhibit ion channel activity of Aβ”. Further, in assay [1] (listed as tannic acid), the “Inhibition of Aβ pores / ion channel activity of Aβ” value is “inhibit Aβ pores”.

In the case of `Cc1ccc2c(c1)sc(-c1ccc(N(C)C)cc1)[n+]2C.[Cl-]` [ThT, Thioflavin T], the “Binding and coating of Aβ fibrils (inhibition of IgG-Aβ fibril interactions)” value at Aβ fibrils was “bind and coat Aβ fibrils”.

For `NCCc1ccc(O)c(O)c1` [dopamine], in assay [1], the “Inhibition of Aβ pores / ion channel activity of Aβ” value is given as “inhibit Aβ pores”.

With `CN1CCC[C@H]1c1cccnc1` [nicotine, (−)Nicotine hemisulfate], in assay [1], the “Inhibition of Aβ peptide ion channel formation (pore forming activity)” value is on record as “eliminated ion channel pore forming activity” and the “Inhibition of Aβ pores / ion channel activity of Aβ” value is recorded as “inhibit Aβ pores”. In assay [1] (comparison of preformed and de novo formed Aβ ion channels), the “Amount of nicotine needed: disruption of preformed channels versus inhibition of de novo formed channels” value is “required more nicotine than the inhibition de novo formed ion channels”. Besides, the “Concentration dependence of disruption of Aβ peptide ion channel activity” value in assay [1] (nicotine added after observing Aβ current activity, 1:1, 1:2, 1:3 and 1:4 molar ratio) is “concentration-dependent disruption of Aβ peptide ion channel activity”. Besides, in assay [1] (nicotine at 2-fold molar excess with respect to Aβ peptide (1-42)), the “Disruption of preformed Aβ ion channels” value was “disrupted preformed ion channels”. The “Disruption of preformed Aβ ion channels” value in assay [1] (nicotine at 4-fold molar excess (4:1) with respect to Aβ peptide (1-42)) is on record as “disrupted preformed ion channels almost completely; also recorded: disrupted preformed Aβ peptide ion channel activity almost completely”. Besides, the “Time to almost complete disruption of preformed ion channels” value in assay [1] (nicotine at 4-fold molar excess with respect to Aβ peptide (1-42)) is given as at most 10 min.

As for Diaminoacridine [DAA], on Aβ fibrils, the “Binding and coating of Aβ fibrils (inhibition of IgG-Aβ fibril interactions)” value is “bind and coat Aβ fibrils”.

Source of the values: patent US20100178658A1, “SCREENING ASSAYS FOR INHIBITORS OF BETA AMYLOID PEPTIDE ION CHANNEL FORMATION” (The Regents of the University of Michigan, priority 2007, published 2010).
